{"source": "patent US20220257698A1", "about": "“ANGIOTENSIN TYPE 2 (AT2) RECEPTOR AGONISTS FOR USE IN THE TREATMENT OF CANCER” (LANTHIOPEP B.V., priority 2019, published 2022)", "key": {"U251MG glioblastoma CDX": {"test_system": "U251MG glioblastoma CDX", "assay": "Tumor hemoglobin level (indirect angiogenesis) in U251MG CDX", "type": "in vivo, cd1 nu/nu mice (human GBM cell line)", "conditions": "KcAng(1-7) 1 μg/kg/d, Losartan 20 mg/kg/d, or both", "method": "Efficacy of treatment was evaluated by: […] In brief, tumors were homogenized in double-distilled water. Eighty microliters of homogenates were mixed with 1 mL of Drabkin's solution and incubated for 15 min at room temperature. After centrifugation at 400×g for 5 min, the supernatants were subjected to absorbance measurement at 540 nm. The absorption, which is proportional to hemoglobin concentration, was divided by tumor weight. Effect of KcAng(1-7) and Losartan against heterotopic U251MG cell culture-based xenografts (CDX) in mice. Animals were treated either with vehicle, treated with 20 mg/kg/d Losartan, treated with 1 μ[…](1-7) or treated with a combination of KcAng(1-7) and with Losartan."}, "[1]": {"test_system": "MaCa4151 breast cancer PDX model", "assay": "KcAng(1-7) on growth of breast carcinoma PDX MaCa4151 in mice", "type": "in vivo, NMRI nu/nu mice (human PDX)", "method": "In vivo studies were conducted at EPO GmbH Berlin. Large studies (FIG. 1A, 2, 3, 4, 5) comprised 3 groups of 10 mice/group and 5 animals as reserve, as outlined in Table 1. Smaller studies (FIG. 1B, 1C, 1D) comprised 2 groups of mice of 3 mice per group. The animals were allocated to the various treatment groups (e.g. 0.2 μg/kg and 30 μg/kg) with a maximum of 10 animals per group. […] The groups received subcutaneous (s.c.) drug injection (for max. 28 days) as outlined in the Table 1.\nNMRI nu/nu mice were used in this study. The animals were female at age of 6 to 8 weeks. The respective PDX tumors were inoculated subcutaneously (s.c.), and the tumors were grown to achieve palpable tumor sizes before start of the respective treatments. The PDX included breast (MaCa4151), colon (Co9689A), head & neck (HN10309), lung (Lu7433) and ovarian (OvCa13329) cancer (Table 2).\nTreatment with KcAng(1-7) was started with palpable tumors after the randomization of animals regarding tumor volume. KcAng(1-7) was applied s.c. by daily injections at […] or 30 μg/kg dose for a maximum of 28 days (or earlier as defined by the humane end point for the study).\nKcAng(1-7) was prepared as follows: The compounds was suspended in sterile PBS resulting in a clear solution. The remains of this formulation were stored at 4° C.\nTumor growth stimulatory or inhibitory activity of the KcAng(1-7) was evaluated by determination of tumor volumes (TV). During the study, tumor volumes and body weight were measured twice a week, and the ratio of the mean tumor volumes between the compound-treated group and the vehicle-treated group (T/C) was calculated.\nTumor volume=(tumor width)×(tumor width)×(tumor length)+2\nT/C=T÷C • T: Mean estimated tumor volume of the compound-treated group • C: Mean estimated tumor volume of the vehicle-treated group"}, "[2]": {"conditions": "Gr. B 0.2 μg/kg/d s.c., Day 21 (Meas. 1)"}, "[3]": {"conditions": "Gr. B 0.2 μg/kg/d s.c., Day 23 (Meas. 2)"}, "[4]": {"conditions": "Gr. B 0.2 μg/kg/d s.c., Day 26 (Meas. 3)"}, "[5]": {"conditions": "Gr. B 0.2 μg/kg/d s.c., Day 29 (Meas. 4)"}, "[6]": {"conditions": "Gr. B 0.2 μg/kg/d s.c., Day 34 (Meas. 5)"}, "[7]": {"conditions": "Gr. B 0.2 μg/kg/d s.c., Day 37 (Meas. 6)"}, "[8]": {"conditions": "Gr. C 30 μg/kg/d s.c., Day 21 (Meas. 1)"}, "[9]": {"conditions": "Gr. C 30 μg/kg/d s.c., Day 23 (Meas. 2)"}, "[10]": {"conditions": "Gr. C 30 μg/kg/d s.c., Day 26 (Meas. 3)"}, "[11]": {"conditions": "Gr. C 30 μg/kg/d s.c., Day 29 (Meas. 4)"}, "[12]": {"conditions": "Gr. C 30 μg/kg/d s.c., Day 34 (Meas. 5)"}, "[13]": {"conditions": "Gr. C 30 μg/kg/d s.c., Day 37 (Meas. 6)"}}}
{"substance": "Lys-Asp-Arg-Val-Abu/Ala-Ile-His-Abu/Ala (KDRVAIHA; not fully specified; cyclic thioether (Abu/Ala bridge); VARIANT (5)..(5) /replace=“Abu”; VARIANT (8)..(8) /replace=“Abu”; SITE (1)..(8) /note=“Variant residues given in the sequence have no preference with respect to those in the annotations for variant positions”) [KcAng(1-7)]", "values": [{"measurement": "Tumor hemoglobin level, mean (± SEM)", "setting": "U251MG glioblastoma CDX", "value": "18.7 ± 2.1 mg Hb/g of tissue"}, {"measurement": "effect on tumor growth", "setting": "[1]; 0.2 and 30 μg/kg, 17 days", "value": "did not resulted in an increase of tumor growth or reduced tumor growth"}, {"measurement": "RTV Mean", "setting": "[1]; [2]", "value": 1}, {"measurement": "RTV Median", "setting": "[1]; [2]", "value": 1}, {"measurement": "T/C", "setting": "[1]; [2]", "value": 95.7, "unit": "%"}, {"measurement": "Tumor Vol. Mean", "setting": "[1]; [2]", "value": 0.163, "unit": "cm^3"}, {"measurement": "Tumor Vol. Median", "setting": "[1]; [2]", "value": 0.131, "unit": "cm^3"}, {"measurement": "RTV Mean", "setting": "[1]; [3]", "value": 1.7}, {"measurement": "RTV Median", "setting": "[1]; [3]", "value": 1.6}, {"measurement": "T/C", "setting": "[1]; [3]", "value": 105.2, "unit": "%"}, {"measurement": "Tumor Vol. Mean", "setting": "[1]; [3]", "value": 0.281, "unit": "cm^3"}, {"measurement": "Tumor Vol. Median", "setting": "[1]; [3]", "value": 0.241, "unit": "cm^3"}, {"measurement": "RTV Mean", "setting": "[1]; [4]", "value": 2.4}, {"measurement": "RTV Median", "setting": "[1]; [4]", "value": 2.2}, {"measurement": "T/C", "setting": "[1]; [4]", "value": 118.4, "unit": "%"}, {"measurement": "Tumor Vol. Mean", "setting": "[1]; [4]", "value": 0.392, "unit": "cm^3"}, {"measurement": "Tumor Vol. Median", "setting": "[1]; [4]", "value": 0.368, "unit": "cm^3"}, {"measurement": "RTV Mean", "setting": "[1]; [5]", "value": 3.4}, {"measurement": "RTV Median", "setting": "[1]; [5]", "value": 3.2}, {"measurement": "T/C", "setting": "[1]; [5]", "value": 104.9, "unit": "%"}, {"measurement": "Tumor Vol. Mean", "setting": "[1]; [5]", "value": 0.55, "unit": "cm^3"}, {"measurement": "Tumor Vol. Median", "setting": "[1]; [5]", "value": 0.491, "unit": "cm^3"}, {"measurement": "RTV Mean", "setting": "[1]; [6]", "value": 6.2}, {"measurement": "RTV Median", "setting": "[1]; [6]", "value": 5.2}, {"measurement": "T/C", "setting": "[1]; [6]", "value": 120.2, "unit": "%"}, {"measurement": "Tumor Vol. Mean", "setting": "[1]; [6]", "value": 0.995, "unit": "cm^3"}, {"measurement": "Tumor Vol. Median", "setting": "[1]; [6]", "value": 1.021, "unit": "cm^3"}, {"measurement": "RTV Mean", "setting": "[1]; [7]", "value": 10.5}, {"measurement": "RTV Median", "setting": "[1]; [7]", "value": 7.6}, {"measurement": "T/C", "setting": "[1]; [7]", "value": 137, "unit": "%"}, {"measurement": "Tumor Vol. Mean", "setting": "[1]; [7]", "value": 1.607, "unit": "cm^3"}, {"measurement": "Tumor Vol. Median", "setting": "[1]; [7]", "value": 1.452, "unit": "cm^3"}, {"measurement": "RTV Mean", "setting": "[1]; [8]", "value": 1}, {"measurement": "RTV Median", "setting": "[1]; [8]", "value": 1}, {"measurement": "T/C", "setting": "[1]; [8]", "value": 94.8, "unit": "%"}, {"measurement": "Tumor Vol. Mean", "setting": "[1]; [8]", "value": 0.162, "unit": "cm^3"}, {"measurement": "Tumor Vol. Median", "setting": "[1]; [8]", "value": 0.157, "unit": "cm^3"}, {"measurement": "RTV Mean", "setting": "[1]; [9]", "value": 1.5}, {"measurement": "RTV Median", "setting": "[1]; [9]", "value": 1.5}, {"measurement": "T/C", "setting": "[1]; [9]", "value": 92.6, "unit": "%"}, {"measurement": "Tumor Vol. Mean", "setting": "[1]; [9]", "value": 0.248, "unit": "cm^3"}, {"measurement": "Tumor Vol. Median", "setting": "[1]; [9]", "value": 0.165, "unit": "cm^3"}, {"measurement": "RTV Mean", "setting": "[1]; [10]", "value": 2.4}, {"measurement": "RTV Median", "setting": "[1]; [10]", "value": 2.5}, {"measurement": "T/C", "setting": "[1]; [10]", "value": 122.3, "unit": "%"}, {"measurement": "Tumor Vol. Mean", "setting": "[1]; [10]", "value": 0.405, "unit": "cm^3"}, {"measurement": "Tumor Vol. Median", "setting": "[1]; [10]", "value": 0.383, "unit": "cm^3"}, {"measurement": "RTV Mean", "setting": "[1]; [11]", "value": 4}, {"measurement": "RTV Median", "setting": "[1]; [11]", "value": 4}, {"measurement": "T/C", "setting": "[1]; [11]", "value": 125, "unit": "%"}, {"measurement": "Tumor Vol. Mean", "setting": "[1]; [11]", "value": 0.655, "unit": "cm^3"}, {"measurement": "Tumor Vol. Median", "setting": "[1]; [11]", "value": 0.671, "unit": "cm^3"}, {"measurement": "RTV Mean", "setting": "[1]; [12]", "value": 6.8}, {"measurement": "RTV Median", "setting": "[1]; [12]", "value": 6.5}, {"measurement": "T/C", "setting": "[1]; [12]", "value": 130.6, "unit": "%"}, {"measurement": "Tumor Vol. Mean", "setting": "[1]; [12]", "value": 1.081, "unit": "cm^3"}, {"measurement": "Tumor Vol. Median", "setting": "[1]; [12]", "value": 1.072, "unit": "cm^3"}, {"measurement": "RTV Mean", "setting": "[1]; [13]", "value": 9.8}, {"measurement": "RTV Median", "setting": "[1]; [13]", "value": 9.1}, {"measurement": "T/C", "setting": "[1]; [13]", "value": 131.2, "unit": "%"}, {"measurement": "Tumor Vol. Mean", "setting": "[1]; [13]", "value": 1.539, "unit": "cm^3"}, {"measurement": "Tumor Vol. Median", "setting": "[1]; [13]", "value": 1.522, "unit": "cm^3"}]}
